Reference: PMC8117417, “Novel Trifluoromethyl Pyrimidinone Compounds With Activity Against Mycobacterium tuberculosis” (Frontiers in Chemistry, 2021)
In brackets after ≈: the same amount, converted by molar mass.

Legend:
[1] = tested on: M. tuberculosis H37Rv; assay: Minimum inhibitory concentration (IC90) against fluorescent M. tuberculosis in liquid culture; settings: for IC90: read-out: MTB IC90; for IC90 / MTB IC90: concentration required to inhibit M. tuberculosis growth by 90%, aerobic culture, 5 days, 7H9-OADC-Tw
[2] = tested on: HepG2 human liver cells; assay: Cytotoxicity against HepG2 cells (CellTiter-Glo); assay type: cell-based; settings: concentration required to inhibit growth of HepG2 cells by 50%, 72 h exposure
Method: Cytotoxicity was measured after 72 h of compound exposure at 37°C and 5% CO2 using CellTiter-Glo (Promega).

[3] = MTB IC90 assay, Figure 1 primary hits and reference drugs in this assay

5-Cyclopentyl-2-(Pyridin-2-yl)-6-(Trifluoromethyl)Pyrimidin-4(3H)-One [Compound 57]
IC90 [1]: 10 ± 2.6 µM
IC50 [2]: 5.9 ± 0.57 µM

O=C1c2ccccc2-c2nn3c(=O)cc(C(F)(F)F)nc3nc21 [Compound 1]
MIC [1, 3]: 3.1 ± 0.49 µM (≈ 0.986 µg/mL)

CCCCc1c(C(F)(F)F)nc(-c2ccccn2)[nH]c1=O [Compound 2]
MIC [1, 3]: 6.8 ± 2.0 µM (≈ 2.02 µg/mL)
IC50 ([2]; Homo sapiens, HepG2, 72 h): 5.3 ± 1.2 µM

Cc1c(C(F)(F)F)nc(-c2cc(COc3ccc(O)cc3)ccn2)[nH]c1=O [Compound 3]
MIC [1, 3]: 7.6 ± 0.85 µM (≈ 2.87 µg/mL)
IC90 [1]: 7.6 ± 0.85 µM
IC50 ([2]; Homo sapiens, HepG2, 72 h): 7.4 ± 0.28 µM

O=c1cc(C(F)(F)F)nc(-c2cc(CCc3ccc(O)cc3)ccn2)[nH]1 [Compound 4]
MIC [1, 3]: 4.2 ± 2.1 µM (≈ 1.52 µg/mL)

O=c1cc(C(F)(F)F)nc(-c2cc(OCc3ccccc3)ccn2)[nH]1 [Compound 6]
MIC [1, 3]: 1.3 ± 0.21 µM (≈ 0.451 µg/mL)
IC90 [1]: 1.3 ± 0.21 µM
IC50 ([2]; Homo sapiens, HepG2, 72 h): 2.5 ± 0.78 µM

COC(=O)Cc1ccc(OCc2ccnc(-c3nc(C(F)(F)F)cc(=O)[nH]3)c2)cc1 [Compound 7]
MIC [1, 3]: 3.3 ± 0.71 µM (≈ 1.38 µg/mL)
IC90 [1]: 3.3 ± 0.71 µM
IC50 ([2]; Homo sapiens, HepG2, 72 h): 7.1 ± 0.14 µM

N#Cc1ccc(COc2ccnc(-c3nc(C(F)(F)F)cc(=O)[nH]3)c2)cc1 [Compound 9]
MIC [1, 3]: 3.7 ± 0.85 µM (≈ 1.38 µg/mL)
IC90 [1]: 3.7 ± 0.85 µM
IC50 ([2]; Homo sapiens, HepG2, 72 h): 6.1 ± 2.1 µM

O=c1[nH]c(-c2ccccn2)nc(C(F)(F)F)c1CC1CC1 [Compound 11]
MIC [1, 3]: 7.9 ± 2.1 µM (≈ 2.33 µg/mL)
IC90 [1]: 7.9 ± 2.1 µM
IC50 ([2]; Homo sapiens, HepG2, 72 h): 11 ± 4.7 µM

CCOC(=O)CCCc1c(C(F)(F)F)nc(-c2ccccn2)[nH]c1=O [Compound 12]
MIC [1, 3]: 3.1 ± 0.57 µM (≈ 1.1 µg/mL)
IC90 [1]: 3.1 ± 0.57 µM
IC50 ([2]; Homo sapiens, HepG2, 72 h): 10 ± 4.3 µM

CCCc1c(C(F)(F)F)nc(-c2ccccn2)[nH]c1=O [Compound 13]
MIC [1, 3]: 10 ± 1.3 µM (≈ 2.83 µg/mL)
IC90 [1]: 10 ± 1.3 µM
IC50 ([2]; Homo sapiens, HepG2, 72 h): 12 ± 1.4 µM

CC(C)Cc1c(C(F)(F)F)nc(-c2ccccn2)[nH]c1=O [Compound 14]
MIC [1, 3]: 5.8 ± 1.3 µM (≈ 1.72 µg/mL)
IC90 [1]: 5.8 ± 1.3 µM
IC50 ([2]; Homo sapiens, HepG2, 72 h): 7.5 ± 1.3 µM

N#Cc1ccc(OCc2ccnc(-c3nc(C(F)(F)F)cc(=O)[nH]3)c2)cc1 [Compound 15]
MIC [1, 3]: 5.3 ± 1.3 µM (≈ 1.97 µg/mL)
IC90 [1]: 5.3 ± 1.3 µM
IC50 ([2]; Homo sapiens, HepG2, 72 h): 7.4 ± 1.6 µM

O=c1cc(C(F)(F)F)nc(-c2ccccn2)[nH]1 [Compound 16, 2-(Pyridin-2-yl)-6-(Trifluoromethyl)Pyrimidin-4(3H)-One]
IC90 [1]: 4.9 ± 0.79 µM
IC50 ([2]; Homo sapiens, HepG2, 72 h): > 100 µM
HepG2 IC50 [2]: lacked cytotoxicity

O=c1cc(C(F)(F)F)nc(-c2ncccc2O)[nH]1 [Compound 17, 2-(3-Hydroxypyridin-2-yl)-6-(Trifluoromethyl)Pyrimidin-4(3H)-One]
IC90 [1]: 3.3 ± 1.1 µM
IC50 ([2]; Homo sapiens, HepG2, 72 h): 16 ± 7.6 µM

O=c1cc(C(F)(F)F)nc(-c2ncccn2)[nH]1 [Compound 18, 6-(Trifluoromethyl)-[2,2′-Bipyrimidin]-4(3H)-One]
MTB IC90 [1]: abolished activity
IC90 [1]: > 20 µM
melting point: 236 to 238 °C
IC50 ([2]; Homo sapiens, HepG2, 72 h): > 100 µM
HepG2 IC50 [2]: abolished activity and cytotoxicity

COc1cccnc1-c1nc(C(F)(F)F)cc(=O)[nH]1 [Compound 19, 2-(3-Methoxypyridin-2-yl)-6-(Trifluoromethyl)Pyrimidin-4(3H)-One]
IC90 [1]: > 20 µM
melting point: 178 to 179 °C
IC50 ([2]; Homo sapiens, HepG2, 72 h): > 100 µM

O=c1cc(C(F)(F)F)nc(-c2cccnc2)[nH]1 [Compound 20, 2-(Pyridin-3-yl)-6-(Trifluoromethyl)Pyrimidin-4(3H)-One]
IC90 [1]: > 20 µM
melting point: 276 to 277 °C
IC50 ([2]; Homo sapiens, HepG2, 72 h): > 100 µM

O=c1cc(C(F)(F)F)nc(-c2ncccc2Cl)[nH]1 [Compound 21, 2-(3-Chloropyridin-2-yl)-6-(Trifluoromethyl)Pyrimidin-4(3H)-One]
IC90 [1]: > 20 µM
IC50 ([2]; Homo sapiens, HepG2, 72 h): > 100 µM

Cc1c(C(F)(F)F)nc(-c2cccnc2)[nH]c1=O [Compound 22, 5-Methyl-2-(Pyridin-3-yl)-6-(Trifluoromethyl)Pyrimidin-4(3H)-One]
IC90 [1]: > 20 µM
melting point: 213 to 215 °C
IC50 ([2]; Homo sapiens, HepG2, 72 h): > 100 µM

Cc1c(C(F)(F)F)nc(-c2ccncc2)[nH]c1=O [Compound 23, 5-Methyl-2-(Pyridin-4-yl)-6-(Trifluoromethyl)Pyrimidin-4(3H)-One]
IC90 [1]: > 20 µM
melting point: 228 to 230 °C
IC50 ([2]; Homo sapiens, HepG2, 72 h): > 100 µM

O=c1cc(C(F)(F)F)nc(-c2ccccc2)[nH]1 [Compound 24, 2-Phenyl-6-(Trifluoromethyl)Pyrimidin-4(3H)-One]
IC90 [1]: > 20 µM
melting point: 225 to 227 °C
IC50 ([2]; Homo sapiens, HepG2, 72 h): > 100 µM

O=c1cc(C(F)(F)F)nc(-c2ccccc2OC(F)(F)F)[nH]1 [Compound 25]
IC90 [1]: > 20 µM
IC50 ([2]; Homo sapiens, HepG2, 72 h): > 100 µM

O=c1cc(C(F)(F)F)nc(-c2ncccc2F)[nH]1 [Compound 26, 2-(3-Fluoropyridin-2-yl)-6-(Trifluoromethyl)Pyrimidin-4(3H)-One]
IC90 [1]: > 20 µM
IC50 ([2]; Homo sapiens, HepG2, 72 h): > 100 µM

O=c1cc(C(F)(F)F)nc(C2CCCCC2)[nH]1 [Compound 27, 2-Cyclohexyl-6-(Trifluoromethyl)Pyrimidin-4(3H)-One]
IC90 [1]: > 20 µM
melting point: 198 to 199 °C
IC50 ([2]; Homo sapiens, HepG2, 72 h): 90 ± 17 µM

O=c1cc(C(F)(F)F)nc(-c2ccccc2F)[nH]1 [Compound 28, 2-(2-Fluorophenyl)-6-(Trifluoromethyl)Pyrimidin-4(3H)-One]
IC90 [1]: > 20 µM
melting point: 168 to 169 °C
IC50 ([2]; Homo sapiens, HepG2, 72 h): > 100 µM

Cc1cccc(C)c1-c1nc(C(F)(F)F)cc(=O)[nH]1 [Compound 29, 2-(2,6-Dimethylphenyl)-6-(Trifluoromethyl)Pyrimidin-4(3H)-One]
IC90 [1]: > 20 µM
melting point: 201 to 202 °C
IC50 ([2]; Homo sapiens, HepG2, 72 h): > 100 µM

Cc1ccccc1-c1nc(C(F)(F)F)cc(=O)[nH]1 [Compound 30, 2-(o-Tolyl)-6-(Trifluoromethyl)Pyrimidin-4(3H)-One]
IC90 [1]: > 20 µM
melting point: 155 to 156 °C
IC50 ([2]; Homo sapiens, HepG2, 72 h): > 100 µM

O=c1cc(C(F)(F)F)nc(-c2ccccc2O)[nH]1 [Compound 31, 2-(2-Hydroxyphenyl)-6-(Trifluoromethyl)Pyrimidin-4(3H)-One]
IC90 [1]: > 20 µM
melting point: 236 to 238 °C
IC50 ([2]; Homo sapiens, HepG2, 72 h): 79 ± 7.8 µM

Cc1c(C(F)(F)F)nc[nH]c1=O [Compound 32, 5-Methyl-6-(Trifluoromethyl)Pyrimidin-4(3H)-One]
MTB IC90 [1]: no antibacterial activity
IC90 [1]: > 20 µM
melting point: 183 to 185 °C
IC50 ([2]; Homo sapiens, HepG2, 72 h): > 100 µM

COc1ccccc1-c1nc(C(F)(F)F)c(C)c(=O)[nH]1 [Compound 34, 2-(2-Methoxyphenyl)-5-Methyl-6-(Trifluoromethyl)Pyrimidin-4(3H)-One]
melting point: 158 to 160 °C
IC50 ([2]; Homo sapiens, HepG2, 72 h): 95 ± 9.5 µM

Cc1c(C(F)(F)F)nc(-c2ccccc2)[nH]c1=O [Compound 35, 5-Methyl-2-Phenyl-6-(Trifluoromethyl)Pyrimidin-4(3H)-One]
IC90 [1]: > 20 µM
melting point: 256 to 259 °C
IC50 ([2]; Homo sapiens, HepG2, 72 h): > 100 µM

Cc1c(C(F)(F)F)nc(-c2ccccc2F)[nH]c1=O [Compound 36, 2-(2-Fluorophenyl)-5-Methyl-6-(Trifluoromethyl)pyrimidin-4(3H)-One]
IC90 [1]: > 20 µM
melting point: 139 to 141 °C
IC50 ([2]; Homo sapiens, HepG2, 72 h): > 100 µM

Cc1c(C(F)(F)F)nc(-c2ccccc2Cl)[nH]c1=O [Compound 37, 2-(2-Chlorophenyl)-5-Methyl-6-(Trifluoromethyl)Pyrimidin-4(3H)-One]
IC90 [1]: > 20 µM
melting point: 165 to 167 °C
IC50 ([2]; Homo sapiens, HepG2, 72 h): 86 ± 24 µM

Cc1c(C(F)(F)F)nc(-c2ncccc2Cl)[nH]c1=O [Compound 38, 2-(3-Chloropyridin-2-yl)-5-Methyl-6-(Trifluoromethyl)Pyrimidin-4(3H)-One]
IC90 [1]: > 20 µM
IC50 ([2]; Homo sapiens, HepG2, 72 h): > 100 µM

COc1cccnc1-c1nc(C(F)(F)F)c(C)c(=O)[nH]1 [Compound 39, 2-(3-Methoxypyridin-2-yl)-5-Methyl-6-(Trifluoromethyl)Pyrimidin-4(3H)-One]
IC90 [1]: > 20 µM
melting point: 164 to 165 °C
IC50 ([2]; Homo sapiens, HepG2, 72 h): > 100 µM

Cc1c(C(F)(F)F)nc(C2CCCCC2)[nH]c1=O [Compound 40, 2-Cyclohexyl-5-Methyl-6-(Trifluoromethyl)Pyrimidin-4(3H)-One]
IC90 [1]: > 20 µM
melting point: 169 to 170 °C
IC50 ([2]; Homo sapiens, HepG2, 72 h): > 100 µM

Cc1c(C(F)(F)F)nc(-c2ncccn2)[nH]c1=O [Compound 41, 5-Methyl-6-(Trifluoromethyl)-[2,2′-Bipyrimidin]-4(3H)-One]
IC90 [1]: > 20 µM
melting point: 229 to 230 °C
IC50 ([2]; Homo sapiens, HepG2, 72 h): > 100 µM

Cc1c(C(F)(F)F)nc(-c2ncccc2F)[nH]c1=O [Compound 45, 2-(3-Fluoropyridin-2-yl)-5-Methyl-6-(Trifluoromethyl)Pyrimidin-4(3H)-One]
IC90 [1]: > 20 µM
IC50 ([2]; Homo sapiens, HepG2, 72 h): > 100 µM

Cc1nc(-c2ccccn2)[nH]c(=O)c1C [Compound 49, 5,6-Dimethyl-2-(Pyridin-2-yl)Pyrimidin-4(3H)-One]
IC90 [1]: > 20 µM
IC50 ([2]; Homo sapiens, HepG2, 72 h): 88 ± 6.9 µM

COc1c(C(F)(F)F)nc(-c2ccccn2)[nH]c1=O [Compound 56, 5-Methoxy-2-(Pyridin-2-yl)-6-(Trifluoromethyl)Pyrimidin-4(3H)-One]
IC90 [1]: 6.1 ± 0.26 µM
IC50 ([2]; Homo sapiens, HepG2, 72 h): 5 ± 0.82 µM

CC[C@@H](CO)NCCN[C@@H](CC)CO [ethambutol, reference compound]
MIC [1, 3]: 3.3 ± 0.4 µM (≈ 0.674 µg/mL)

NNC(=O)c1ccncc1 [isoniazid, reference compound]
MIC [1, 3]: 0.6 ± 0.2 µM (≈ 0.0823 µg/mL)

CO[C@H]1/C=C/O[C@@]2(C)Oc3c(C)c(O)c4c(O)c(c(/C=N/N5CCN(C)CC5)c(O)c4c3C2=O)NC(=O)/C(C)=C\C=C\[C@H](C)[C@H](O)[C@@H](C)[C@@H](O)[C@@H](C)[C@H](OC(C)=O)[C@@H]1C [rifampicin, reference compound]
MIC ([1]; reference drug in this assay): 0.008 ± 0.0002 µM (≈ 0.00658 µg/mL)
